{"source": "patent US10409869B2", "about": "“(R)- and (S)-1-(3-(3-N,N-dimethylaminocarbonyl)phenoxyl-4-nitrophenyl)-1-ethyl-N,N'-bis (ethylene)phosphoramidate, compositions and methods for their use and preparation” (OBI Pharma, Inc., priority 2015, dated 2019)", "key": {"[1]": {"test_system": "HepG2-GFP human hepatocellular carcinoma", "assay": "Orthotopic HepG2-GFP human hepatocellular carcinoma mouse model, tumor burden", "assay_type": "in vivo, nude mice", "settings": "at tested dosages", "description": "Female athymic nude mice (6 weeks of age) were used in this study. The animals were purchased from Beijing HFK Bioscience, Co., Ltd and maintained in a High Efficiency Particulate Air Filter (HEPA) filtered environment with cages, food, and bedding sterilized by irradiation or autoclaving. A total of 32 nude mice were used for the study. HepG2-GFP human hepatocellular carcinoma cells (AntiCancer, Inc., San Diego, Calif.) were incubated with RPMI-1640 (Gibco-BRL, Life Technologies, Inc.), which contained 10% FBS. Cells were grown in a CO2 Water Jacketed Incubator (Forma Scientific) maintaining 37° C. and a 5% CO2/95% air atmosphere. Cell viability was determined by trypan blue exclusion analysis. Five female athymic nude mice were injected subcutaneously with a single dose of 5×10^6 HepG2-GFP cells. Tumors were harvested when their size reached 1 cm^3 and the tumor tissues were then cut into small fragments of 1 mm^3. Forty female nude mice were implanted orthotopically with a single piece of tumor fragment, which was derived from a subcutaneous tumor model of HepG2-GFP human hepatocellular carcinoma. The tumor tissue was orthotopically implanted in the right lobe of the liver in each mouse by SOI (Surgical Orthotopic Implantation). […]\nDuring the period of the study, all of the experimental mice were checked daily for mortality or signs of morbidity. […] The body weights of the mice were measured twice weekly during the study period. […] Comparisons of body weights and tumor burdens in different groups were analyzed using the Student's t-test with an α=0.05 (two-sided). […]\nThe progressions of orthotopic HepG2-GFP hepatocellular carcinoma in different groups were monitored by real time imaging. […] Typical tumor images at the end of the study in each group and tumor growth curves derived from the signals of tumor fluorescence, which were analyzed using the Power Station software (INDEC Biosystems, CA, USA), are shown in FIG. 6 and FIG. 7, respectively\nTumor IR was calculated based on the final average tumor weights according to the formula: IR (%)=(1−treatment(t)/control(c))×100"}, "AL7473 cells": {"test_system": "AL7473 cells", "assay": "T-cell leukemia animal model, human CD45 FACS", "assay_type": "in vivo, mouse", "description": "Leukemic cells were prepared by thawing out ˜150×10^6 of AL7473 cells from LN2 (about 2-3 vials) and placing them into a 37° C. water bath rapidly. All of the cells were transferred into a 50 ml falcon tube with 40 ml pre-warmed complete medium. The cells were centrifuged at 1200 rpm for 5 min. The cells were re-suspended with 40 ml RPMI1640. The cells were then counted. The cells were centrifuged at 1200 rpm for 5 min. and re-suspended with ice cold PBS to 2 million cell per 100 ul PBS. 100 ul of saline containing 2×10^6 cells prepared above were used to inject into each mouse by IV. The FACS analysis was done for blood weekly during the experimental period by transferring samples into FACS tubes, adding human CD45 FITC and isotypes into corresponding tubes for all the samples and incubating the cells on ice for 30 min. in the dark. 2 ml of red blood cell lysing buffer was added to each tube and incubated on ice for another 30 min. in the dark. […] Samples were analyzed on a BD Calibur by using Cell Quest or Flowjo and the results were analyzed by using Prism 5.0. […]\nPeripheral blood was collected weekly for human CD45 antibody FACS detected during treatment since the treatment start on Day 43 post cell inoculation. […] Blood, spleen and bone marrow of all mice were collected for human CD45 FACS detected. […]"}}, "data": [{"smiles": "C[C@H](OP(=O)(N1CC1)N1CC1)c1ccc([N+](=O)[O-])c(Oc2cccc(C(=O)N(C)C)c2)c1", "note": "(single isomer, unassigned) [TH3424]", "values": [{"measurement": "inhibitory effect on orthotopic HepG2-GFP model", "setting": "[1]", "result": "very strong inhibitory effect"}, {"measurement": "percentages of human CD45+ leukemia cells in peripheral blood", "setting": "AL7473 cells; after the second dosing, treatment groups 2-4 vs vehicle group 1, P<0.001", "result": "significantly lower than vehicle group"}, {"measurement": "tumor burden (human CD45) in blood, spleen and bone marrow at termination", "setting": "AL7473 cells; groups 2-4 vs group1, P<0.01, bone marrow in group2 P<0.05", "result": "significant differences"}]}]}
